# Where two headings read alike, the source gives them in different places.
# Columns and labels:
# souris [1] = assay: Anticonvulsant activity: bicuculline-induced convulsions in mice; assay type: in vivo; settings: mouse, i.p., 100 mg/kg
# Description: L'activité anticonvulsivante est également déterminée dans le test des inhibitions des convulsions induites par la bicuculline. Des souris reçoivent par voie intrapéritonéale le produit à tester, puis 30 mn et 5 heures plus tard, deux injections séparées de 0,5 mg de bicuculline. […] Les résultats de ce test sont le reflet d'une activité gabaergique directe.
# souris [2] = assay: Anticonvulsant activity: maximal electroshock convulsions in mice; assay type: in vivo; settings: mouse, oral, 100 mg/kg, one hour after administration
# Source text: L'activité anticonvulsivante est appréciée dans le test de la prévention des convulsions induites par des électrochocs d'intensité maximale.
# [3] = tested on: rat soumis à une surcharge hydrique; assay: Diuretic activity in rats given a water overload, oral; assay type: in vivo; settings: rat, water overload, oral; for response vs control in vivo at 20 mg/kg: read-out: facteur multipliant l'excrétion urinaire du sodium
# Procedure, shortened: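 Oral dosing (5–80 mg/kg) to rats under water overload, or to rats and mice under saline overload. Urine volume and excreted sodium and potassium measured over 6 h, expressed as change versus control animals; Na/K ratio also derived.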
# souris [4] = assay: Acute toxicity (mortality, LD50) in mice; assay type: in vivo; settings: mouse
# [5] = tested on: rat Wistar soumis à une surcharge saline; assay: Diuretic activity in selected Wistar rats given a saline overload (modified Wiebelhaus test); assay type: in vivo
# Procedure, shortened: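 Selected Wistar rats under saline overload (modified Wiebelhaus test) received compound at 20 mg/kg. Urine volume and sodium excretion were measured over 6 h, expressed as % increase, with Na/K ratio also assessed.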
# [6] = tested on: rat vigile spontanément hypertendu; assay: Antihypertensive activity in conscious spontaneously hypertensive rats (indirect tail pressure); assay type: in vivo; settings: SHR, oral, 100 mg/kg
# Description: L'activité antihypertensive a été appréciée chez le rat vigile spontanément hypertendu. La pression artérielle est mesurée de façon indirecte sur la queue 2, 4, 6 heures après l'administration par voie orale du produit à tester. Pour le COR4009, administré à la dose de 100 mg/kg, la réduction de pression est respectivement de 8, 13, 13% à ces échéances.
# [7] = tested on: oreillette gauche de cobaye; assay: Calcium antagonist activity: electrically stimulated guinea pig left atrium; settings: 150 beats/min, low-calcium (0,6 mM) Tyrode solution; read-out: concentration qui inhibe de 50% l'augmentation de la force de contraction induite par l'addition de 0,6 mM de calcium
# Description: L'activité anticalcique a été déterminée in vitro sur deux modèles expérimentaux.
# Sur oreillette gauche de cobaye stimulée électriquement à 150 battements/mn dans une solution de Tyrode pauvre en calcium (0,6 mM), les COR3789, COR3792, COR4009, COR4010 et COR4011 employés respectivement à 25, 100, 50, 10 et 25 microg/ml inhibent de 50% l'augmentation de la force de contraction induite par l'addition de 0,6 mM de calcium.
# [8] = tested on: rat soumis à une surcharge saline; assay: Diuretic activity in rats given a saline overload, oral; assay type: in vivo
# Description: (§1) L'activité diurétique a été déterminée sur plusieurs modèles expérimentaux. Chez le rat soumis à une surcharge hydrique, administrés par voie orale à la dose de 20 mg/kg, le COR3760, le COR3789, le COR3792, le COR4002, le COR4003, le COR4009, le COR4010, le COR4012 et le COR4014 multiplient l'excrétion urinaire du sodium par respectivement un facteur 2,9 - 3,1 - 5,9 - 2,6 - 7,2 - 3,5 - 3,8 - 2,9 - 2,4. Administrés à la dose de 10 mg/kg, dans les mêmes conditions, les COR3760, COR3789, COR3792, COR4003 et COR4010 multiplient l'excrétion sodique par respectivement 2,3 - 2,9 - 2,8 - 2,4 et 2,5. La spironolactone multiplie quant à elle l'excrétion sodique d'un facteur 3,6 à la dose de 20 mg/kg. Administré à la dose de 5 mg/kg dans les mêmes conditions, le COR3792 multiplie l'excrétion sodique par 3,3. Administré par voie orale chez le rat ou la souris soumis à une surcharge saline, le COR3760 augmente l'excrétion urinaire volumétrique mesurée à la sixième heure de respectivement 49, 119 et 134% chez la souris et 28, 84 et 116% chez le rat après administration de 10, 20, et 40 mg/kg. Le COR3760 a été administré par voie orale au rat soumis à une surcharge hydrique et l'excrétion urinaire volumétrique, le sodium et le potassium excrétés ont été mesurés sur une période de 6 heures; ces paramètres ont varié de respectivement +17%, +102%, +165% à 10 mg/kg, +19%, +147%, +180% à 20 mg/kg et +36%, +415% et +239% à 40 mg/kg; le rapport Na/K passe de 0,56 chez les animaux témoins à 0,4 à 10 mg/kg, 0,49 à 20 mg/kg et 0, 8 à 40 mg/ kg. Au cours d'une seconde expérimentation, le COR3760 a entrainé des variations de +19%, +157%, +70% à 40 mg/kg, +19%, +319%, +90% à 60 mg/kg et +29%, +472% et +77% à 80 mg/kg; le rapport Na/K passe de 0,59 chez les animaux témoins à 0,88 à 40, 1,15 à 60 et 1,88 à 80 mg/kg.
# [9] = tested on: souris soumis à une surcharge saline; assay: Diuretic activity in mice given a saline overload, oral; assay type: in vivo; settings: mouse
# Description: as §1
# souris [10] = assay: Antidepressant activity: potentiation of yohimbine toxicity in mice; assay type: in vivo; settings: mouse, yohimbine 15 mg/kg s.c. (non-lethal dose), test product oral 100 mg/kg
# Description: (§2) L'activité antidépressive a été déterminée dans le test de potentialisation de la toxicité de la yohimbine et dans le test de l'inhibition du ptosis induit par la réserpine.
# (§3) On injecte par voie sous cutanée à des souris, lh avant l'administration par voie orale du produit à tester, une dose non léthale de yohimbine soit 15 mg/kg. Le COR3760 administré à la dose de 100 mg/kg entraine 80% de mortalité dans ces conditions. Des souris reçoivent par voie orale le produit à tester 90 mn avant l'injection par voie intrapéritonéale de 5 mg/kg de réserpine solubilisée. On cote le ptosis selon un index allant de 0 à 6, la cote 0 correspondant à un ptosis maximum et la cote 6 à l'absence de ptosis. Les COR3760 et COR4011 conduisent dans les conditions de l'expérience à un ptosis coté à 4 pour une dose de respectivement 200 et 50 mg/kg.
# [11] = tested on: poumon de cobaye isolé perfusé; assay: Bronchodilator activity: isolated perfused guinea pig lung contracted by methacholine; settings: flow of Tyrode solution, lung contracted by 0,05 microg/ml methacholine; read-out: concentration qui augmente ce débit de 50%
# Source text: L'activité bronchodilatatrice a été déterminée in vitro par la mesure du débit d'une solution de Tyrode à travers un poumon de cobaye isolé perfusé, contracté par l'addition au fluide de perfusion de 0,05 microg/ml de méthacholine. Les COR3760, COR3789, COR3792, COR4003, COR4008, COR4010 et COR4014 utilisés respectivement aux concentrations de 50, 50, 100, 10, 50, 50 et 10 microg/ml augmentent ce débit de 50%. L'aminophylline entraine cette même activité à la concentration de 100 microg/ml.
# [12] = tested on: segments d'iléon de cobaye isolés; assay: Anticholinergic activity: acetylcholine-induced contractions of isolated guinea pig ileum; settings: Cavia porcellus; contractions induced by 0,1 microg/ml acetylcholine; read-out: concentration qui inhibe ces contractions de 80%
# Source text: L'activité anticholinergique a été appréciée par la mesure des contractions induites par 0,1 microg/ml d'acétylcholine sur des segments d'iléon de cobaye isolés. Les COR3760, COR3789, COR3792, COR4003, COR4008, COR4010, COR4014 utilisés respectivement aux concentrations de 50, 25, 25, 50, 25, 10, 25 microg/ml inhibent ces contractions de 80%.
# [13] = Acute toxicity (mortality, LD50) in mice; assay type: in vivo; settings: in vivo; mouse, oral, in solution in Tween 20%; read-out: DL50 (the source's name)
# souris [14] = assay: Antidepressant activity: inhibition of reserpine-induced ptosis in mice; assay type: in vivo; settings: mouse, oral 200 mg/kg 90 min before reserpine 5 mg/kg i.p.; index 0 (maximum ptosis) to 6 (no ptosis)
# Description: as §2, §3
# [15] = first experiment, 10 mg/kg, 6 hours
# [16] = first experiment, 20 mg/kg, 6 hours
# [17] = first experiment, 40 mg/kg, 6 hours
smiles,measurement,setting,value
"COCCNC(C)=C1C(=O)c2ccccc2C1=O [COR4009, ((Méthoxy-2 éthyl) amino-1 éthylidényl)-2 indanedione-1,3]",inhibition des convulsions induites par la bicuculline,souris [1]; first bicuculline injection (30 min later),inhibe les convulsions induites par la première injection
same,inhibition des convulsions induites par la bicuculline,souris [1]; second bicuculline injection (5 hours later),sans inhiber celles induites par la deuxième
same,prévention des convulsions induites par des électrochocs d'intensité maximale,souris [2],on n'observe plus de convulsions
same,response vs control in vivo at 20 mg/kg,[3]; 20 mg/kg,350%
same,mortalité,"souris [4]; intraperitoneal, 200 mg/kg",aucune mortalité
same,mortalité,"souris [4]; oral, 300 mg/kg",aucune mortalité
same,change in vivo at 20 mg/kg,"[5]; 6 h, read-out: augmentation de l'excrétion urinaire volumétrique mesurée au bout de 6 heures",65%
same,change in vivo at 20 mg/kg,[5]; read-out: augmentation de l'excrétion urinaire du sodium,42%
same,réduction de pression,[6]; 2 hours after administration,8%
same,réduction de pression,[6]; 4 hours after administration,13%
same,réduction de pression,[6]; 6 hours after administration,13%
same,IC50,[7],50 µg/mL
"CNC(C)=C1C(=O)c2ccccc2C1=O [COR3760, (Méthylamino-1 éthylidène)-2 indanedione-1,3]",augmentation de l'excrétion urinaire volumétrique mesurée à la sixième heure,[8]; 10 mg/kg,28%
same,augmentation de l'excrétion urinaire volumétrique mesurée à la sixième heure,[8]; 20 mg/kg,84%
same,augmentation de l'excrétion urinaire volumétrique mesurée à la sixième heure,[8]; 40 mg/kg,116%
same,augmentation de l'excrétion urinaire volumétrique mesurée à la sixième heure,[9]; 10 mg/kg,49%
same,augmentation de l'excrétion urinaire volumétrique mesurée à la sixième heure,[9]; 20 mg/kg,119%
same,augmentation de l'excrétion urinaire volumétrique mesurée à la sixième heure,[9]; 40 mg/kg,134%
same,mortalité,souris [10],80%
same,EC50,[11],50 µg/mL
same,rapport Na/K,"[3]; first experiment, 10 mg/kg (controls 0,56)","0,4"
same,variation de l'excrétion urinaire volumétrique,[3]; [15],+17%
same,variation du potassium excrété,[3]; [15],+165%
same,variation du sodium excrété,[3]; [15],+102%
same,rapport Na/K,"[3]; first experiment, 20 mg/kg (controls 0,56)","0,49"
same,variation de l'excrétion urinaire volumétrique,[3]; [16],+19%
same,variation du potassium excrété,[3]; [16],+180%
same,variation du sodium excrété,[3]; [16],+147%
same,variation de l'excrétion urinaire volumétrique,[3]; [17],+36%
same,variation du potassium excrété,[3]; [17],+239%
same,variation du sodium excrété,[3]; [17],+415%
same,facteur multipliant l'excrétion sodique,[3]; 10 mg/kg,"2,3"
same,response vs control in vivo at 20 mg/kg,[3]; 20 mg/kg,290%
same,variation de l'excrétion urinaire volumétrique,"[3]; second experiment, 40 mg/kg",+19%
same,variation du potassium excrété,"[3]; second experiment, 40 mg/kg",+70%
same,variation du sodium excrété,"[3]; second experiment, 40 mg/kg",+157%
same,rapport Na/K,"[3]; second experiment, 40 mg/kg (controls 0,59)","0,88"
same,variation de l'excrétion urinaire volumétrique,"[3]; second experiment, 60 mg/kg",+19%
same,variation du potassium excrété,"[3]; second experiment, 60 mg/kg",+90%
same,variation du sodium excrété,"[3]; second experiment, 60 mg/kg",+319%
same,rapport Na/K,"[3]; second experiment, 60 mg/kg (controls 0,59)","1,15"
same,variation de l'excrétion urinaire volumétrique,"[3]; second experiment, 80 mg/kg",+29%
same,variation du potassium excrété,"[3]; second experiment, 80 mg/kg",+77%
same,variation du sodium excrété,"[3]; second experiment, 80 mg/kg",+472%
same,rapport Na/K,"[3]; second experiment, 80 mg/kg (controls 0,59)","1,88"
same,IC80,[12],50 µg/mL
same,LD50,[13],736 mg/kg
same,mortalité,"souris [4]; intraperitoneal, 200 mg/kg",aucune mortalité
same,mortalité,"souris [4]; oral, 300 mg/kg",aucune mortalité
same,ptosis coté,souris [14],4
